Results: patent US4774251A, “Method of inhibiting aromatase” (Eli Lilly and Company, priority 1984, dated 1988)
Like-named read-outs stand apart in the source and are kept apart here. One block for each compound: values may come before it.

Columns and labels:
aromatase = target: T1, aromatase (Rattus norvegicus, UniProt P22443); experiment: Aromatase inhibition in the rat ovarian microsome assay; format: biochemical
T1 construct: ovarian microsomes are obtained from rats treated with pregnant mares serum gonadotropin; from tissue; host or cells: ovarian microsomes from rats treated with pregnant mares serum gonadotropin
T1 sequence (P22443 1-508): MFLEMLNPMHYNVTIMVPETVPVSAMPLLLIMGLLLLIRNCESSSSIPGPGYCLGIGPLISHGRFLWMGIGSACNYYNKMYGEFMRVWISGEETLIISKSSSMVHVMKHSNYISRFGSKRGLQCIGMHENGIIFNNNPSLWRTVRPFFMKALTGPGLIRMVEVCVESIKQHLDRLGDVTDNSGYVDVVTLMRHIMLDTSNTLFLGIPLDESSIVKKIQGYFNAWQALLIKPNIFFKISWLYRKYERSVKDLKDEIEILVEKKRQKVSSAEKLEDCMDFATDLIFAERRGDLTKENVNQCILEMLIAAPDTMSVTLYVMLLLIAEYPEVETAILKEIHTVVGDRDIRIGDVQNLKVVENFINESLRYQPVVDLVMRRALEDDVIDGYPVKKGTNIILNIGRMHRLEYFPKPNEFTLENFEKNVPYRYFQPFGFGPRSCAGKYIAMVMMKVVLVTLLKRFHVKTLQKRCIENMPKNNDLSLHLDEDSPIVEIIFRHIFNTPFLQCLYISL
Description: In this test system, ovarian microsomes are obtained from rats treated with pregnant mares serum gonadotropin. Test compounds are added to reaction vials containing 0.1 μM 4-androstene-3,17-dione, 100,000 dpm 1,2[^3 H]-androstenedione, the microsomes and a NADPH generating system. The concentrations of the inhibitors tested ranged between 0.005 and 10 μM.

[1] = system: uterus (weight stimulated by estrogens produced by aromatization); experiment: Estrogen synthesis inhibition in rats: uterine weight after testosterone propionate; format: in vivo, rat (immature female Wistar); details: 7 days, testosterone-treated control: Test I 180.3, Test II 210.4, corn oil control: 66.7, 101.4
Description: Immature female Wistar rats (45-55 grams) were divided into control and test groups of 4-8 animals each. Test compounds were administered for seven days as a component of the diet. Control animals received diet without the test compound. Beginning on the fourth day of the test, all animals treated with the test compound and one half of the control animals were given a subcutaneous injection of 1.0 mg of testosterone propionate in corn oil. The remaining control animals received only an equivalent volume of corn oil. On the seventh day of the test, rats treated with testosterone propionate were injected subcutaneously with 100 μCi of [^3 H]-testosterone in 50 μl of 3:1 (v/v) saline-ethanol.
After two hours, the animals were killed by decapitation. Uteri were isolated, trimmed of extraneous connective tissue, and weighted. […] In the control animals treated with testosterone propionate, estrogens produced by aromatization stimulated the uterus resulting in an increase in weight.

[2] = system: estrogen synthesis (ovarian estradiol, estrone, estriol); experiment: Estrogen synthesis inhibition in rats: ovarian steroid concentrations after [3H]-testosterone; format: in vivo, rat (immature female Wistar); details: 7 days, ovary; for Mean Steroid Concentration, estriol: testosterone-treated control: Test I 0.41, Test II 0.17; for Mean Steroid Concentration, estrone: testosterone-treated control: Test I 0.88, Test II 0.41; for Mean Steroid Concentration, estradiol: testosterone-treated control: Test I 2.29, Test II 0.78
Description: The ovarian steroids were extracted with 1.5 ml of 9:1 (v/v) toluene/ethanol to which had been added 25 to 100 mcg each of unlabelled estradiol, estriol, and estrone, and approximately 1000 dpm of [^14 C]-estradiol. The samples were vortexed, centrifuged at 500×g for 10 minutes, and the organic phase was transferred to a conical vial. Two additional extractions were performed on the residue in the same way. The pooled organic extract were evaporated for subsequent thin-layer chromatography.
The organic residue from each above extraction was redissolved in 9:1 (v/v) dichloromethane/methanol. The solution of each sample was applied to separate silica gel thin layer chromatography plates which contained a fluorescent indicator. The plates were developed in the first dimension with 160:38:1.5:0.5 (v/v/v/v) dichloromethane/ethyl acetate/methanol/acetic acid to within 3 cm of the top of the plate. After air-drying, the plate was developed in the second dimension with 180:19:1 (v/v/v) dichloromethane/methanol/ammonium hydroxide.
The spots were scraped from the plate using a glass wool plugged Pasteur pipet attached to a vacuum line. The steroids were eluted directly into scintillation vials by the addition of 0.2 ml of dichloromethane followed by two washes each of 2.0 ml of methanol. The organic solvent was evaporated and 10.0 ml of scintillation fluid (Beckman Ready Solv-NA) was added to the vials. Samples were analyzed by liquid scintillation spectrometry. Corrections were made based on the recoveries of the [^14 C]-steroid. Steroid concentrations are expressed as femtomoles per milligram protein.

[3] = rat ovarian microsomes, substrate 4-androstene-3,17-dione 0.1 μM, [3H]-H2O release
[4] = 30 ppm in feed (approx. 3 mg/kg/day)
[5] = 300 ppm in feed (approx. 30 mg/kg/day)

- EC50 (aromatase; [3]): 630 nM
Compound: CCCCN(Cc1cccnc1)c1ccc(C)cc1C [N--butyl-N--(2,4-dimethylphenyl)-3-pyridinemethanamine]

Compound: CCCCCCN(Cc1cccnc1)c1ccc(Cl)cc1Cl [N--(2,4-dichlorophenyl)-N--hexyl-3-pyridinemethanamine]
- EC50 (aromatase): 1200 nM

- EC50 (aromatase; [3]): 1200 nM
Compound: CC(c1cccnc1)N(Cc1ccccc1)c1ccc(Cl)cc1 (stereo not drawn) [N--(4-chlorophenyl)-α-methyl-N--benzyl-3-pyridinemethanamine]

- EC50 (aromatase; [3]): 370 nM
Compound: CCCCN(c1ccc(F)cc1)C(C)c1cccnc1 (stereo not drawn) [N--butyl-N--(4-fluorophenyl)-α-methyl-3-pyridinemethanamine]

- EC50 (aromatase; [3]): < 50 nM
Compound: Fc1ccc(N(Cc2ccccc2)Cc2cccnc2)c(F)c1 [N--(2,4-difluorophenyl)-N--benzyl-3-pyridinemethanamine]
- Mean Uterine Weight [1, 4]: 196.3 mg
- Mean Uterine Weight [1, 5]: 171.4 mg
- Mean Steroid Concentration, estriol [2, 4]: 0.44 femtomoles per milligram of protein
- Mean Steroid Concentration, estrone [2, 4]: 0.00 femtomoles per milligram of protein
- Mean Steroid Concentration, estradiol [2, 4]: 0.84 femtomoles per milligram of protein
- Mean Steroid Concentration, estriol [2, 5]: 0.32 femtomoles per milligram of protein
- Mean Steroid Concentration, estrone [2, 5]: 0.00 femtomoles per milligram of protein
- Mean Steroid Concentration, estradiol [2, 5]: 0.44 femtomoles per milligram of protein

- EC50 (aromatase; [3]): 290 nM
Compound: CCCCN(c1ccc(Cl)cc1)C(c1ccccc1)c1cccnc1 (stereo not drawn) [N--butyl-N--(4-chlorophenyl)-α-phenyl-3-pyridinemethanamine]

Compound: Fc1ccc(C(Nc2ccccc2Cl)c2cccnc2)cc1 (stereo not drawn) [N--(2-chlorophenyl)-α-(4-fluorophenyl)-3-pyridinemethanamine]
- EC50 (aromatase; [3]): 80 nM
- Mean Uterine Weight [1, 4]: 154.3 mg
- Mean Uterine Weight [1, 5]: 157.4 mg
- Mean Steroid Concentration, estriol [2, 4]: 0.51 femtomoles per milligram of protein
- Mean Steroid Concentration, estrone [2, 4]: 0.47 femtomoles per milligram of protein
- Mean Steroid Concentration, estradiol [2, 4]: 2.67 femtomoles per milligram of protein
- Mean Steroid Concentration, estriol [2, 5]: 0.37 femtomoles per milligram of protein
- Mean Steroid Concentration, estrone [2, 5]: 0.31 femtomoles per milligram of protein
- Mean Steroid Concentration, estradiol [2, 5]: 1.64 femtomoles per milligram of protein

- EC50 (aromatase; [3]): 2000 nM
Compound: CC(c1cccnc1)N(C)c1ccc(Cl)cc1 (stereo not drawn) [N--(4-chlorophenyl)-N,α-dimethyl-3-pyridinemethanamine]

- EC50 (aromatase; [3]): 2500 nM
Compound: CN(c1ccc(Cl)cc1)C(c1ccccc1)c1cccnc1 (stereo not drawn) [N--(4-chlorophenyl)-N--methyl-α-phenyl-3-pyridinemethanamine]

- EC50 (aromatase; [3]): 310 nM
Compound: Clc1ccc(N(Cc2ccccc2)Cc2cccnc2)c(Cl)c1 [N--(2,4-dichlorophenyl)-N--benzyl-3-pyridinemethanamine]

Compound: C#CCN(Cc1cccnc1)c1ccc(Cl)cc1Cl [N--(2,4-dichlorophenyl)-N--(2-propynyl)-3-pyridinemethanamine]
- EC50 (aromatase): 165 nM

- EC50 (aromatase; [3]): 750 nM
Compound: C=CCN(Cc1cccnc1)c1ccc(Cl)cc1Cl [N--(2,4-dichlorophenyl)-N--(2-propenyl)-3-pyridinemethanamine]

Compound: CC=CCN(Cc1cccnc1)c1ccc(Cl)cc1Cl [N--(2-butenyl)-N--(2,4-dichlorophenyl)-3-pyridinemethanamine]
- EC50 (aromatase): 359 nM

- EC50 (aromatase; [3]): 740 nM
Compound: CCCCN(Cc1ccc(Cl)cc1)c1cnccn1 [N--butyl-N--[(4-chlorophenyl)methyl]pyrazinamine]
